Source: ChEMBL document CHEMBL5370539, “Oxazole-4-carboxamide/butylated hydroxytoluene hybrids with GSK-3β inhibitory and neuroprotective activities against Alzheimer's disease” (Eur J Med Chem, 2023)
Calls of active or inactive are those of the source. The rule behind the calls is not given here.

Legend:
[1] = target: Glycogen synthase kinase-3 beta (Homo sapiens, UniProt P49841); test: Inhibition of recombinant human GSK-3beta using YRRAAVPPSPSLSRHSSPHQ(pS)EDEE as substrate preincubated for 15 mins followed by substrate addition and measured after 60 mins by Kinase-Glo luminescent kinase assay
Chain of Glycogen synthase kinase-3 beta (P49841 whole entry): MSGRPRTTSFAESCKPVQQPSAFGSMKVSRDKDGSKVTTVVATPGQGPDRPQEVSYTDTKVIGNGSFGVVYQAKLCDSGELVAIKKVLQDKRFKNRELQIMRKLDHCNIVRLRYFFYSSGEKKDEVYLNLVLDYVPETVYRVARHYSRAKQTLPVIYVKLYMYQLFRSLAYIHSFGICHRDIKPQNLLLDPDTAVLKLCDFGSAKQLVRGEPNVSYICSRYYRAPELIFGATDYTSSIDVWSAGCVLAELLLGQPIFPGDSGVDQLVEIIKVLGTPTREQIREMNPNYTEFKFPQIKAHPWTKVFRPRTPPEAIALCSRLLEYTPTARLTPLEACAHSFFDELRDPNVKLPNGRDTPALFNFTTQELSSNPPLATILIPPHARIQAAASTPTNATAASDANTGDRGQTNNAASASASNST

[2] = system: PC-12; test: Neuroprotective activity against H2O2-induced cytotoxicity in rat PC12 cells assessed as increase in cell viability at 10 uM preincubated for 12 hrs followed by replacement with fresh media and H2O2 stimulation for 12 hrs by MTT assay; assay type: functional, cell-based

Compound | IC50 [1] | Activity [2]
COc1ccc(-c2ocnc2C(=O)NCCCc2ccc(NC(=O)CCc3cc(C(C)(C)C)c(O)c(C(C)(C)C)c3)cc2)cc1Cl | > 1 nM | 
COc1ccc(-c2ocnc2C(=O)NCCCCNC(=O)CCc2cc(C(C)(C)C)c(O)c(C(C)(C)C)c2)cc1Cl | 0.84 nM | Active
COc1ccc(-c2ocnc2C(=O)NCCCc2ccc(NC(=O)c3cc(C(C)(C)C)c(O)c(C(C)(C)C)c3)cc2)cc1Cl | 0.92 nM | Active
COc1ccc(-c2ocnc2C(=O)NCCCNC(=O)CCc2cc(C(C)(C)C)c(O)c(C(C)(C)C)c2)cc1Cl | > 1 nM | 
COc1ccc(-c2ocnc2C(=O)NCCCCNC(=O)c2cc(C(C)(C)C)c(O)c(C(C)(C)C)c2)cc1Cl | 0.81 nM | Active
COc1ccc(-c2ocnc2C(=O)NCCCNC(=O)/C=C/c2cc(C(C)(C)C)c(O)c(C(C)(C)C)c2)cc1Cl | 0.41 nM | 
COc1ccc(-c2ocnc2C(=O)NCCCn2cc(CNC(=O)/C=C/c3cc(C(C)(C)C)c(O)c(C(C)(C)C)c3)nn2)cc1Cl | 0.76 nM | 
COc1ccc(-c2ocnc2C(=O)NCCCNC(=O)c2cc(C(C)(C)C)c(O)c(C(C)(C)C)c2)cc1F | > 1 nM | 
COc1c(F)cc(-c2ocnc2C(=O)NCCCNC(=O)CCc2cc(C(C)(C)C)c(O)c(C(C)(C)C)c2)cc1F | > 1 nM | 
COc1ccc(-c2ocnc2C(=O)NCCCn2cc(CNC(=O)c3cc(C(C)(C)C)c(O)c(C(C)(C)C)c3)nn2)cc1Cl | > 1 nM | 
COc1ccc(-c2ocnc2C(=O)NCCCc2ccc(NC(=O)/C=C/c3cc(C(C)(C)C)c(O)c(C(C)(C)C)c3)cc2)cc1F | > 1 nM | 
COc1ccc(-c2ocnc2C(=O)NCCCNC(=O)CCc2cc(C(C)(C)C)c(O)c(C(C)(C)C)c2)cc1I | > 1 nM | 
COc1ccc(-c2ocnc2C(=O)NCCCNC(=O)c2cc(C(C)(C)C)c(O)c(C(C)(C)C)c2)cc1Cl | > 1 nM | 
COc1ccc(-c2ocnc2C(=O)NCCCn2cc(CNC(=O)CCc3cc(C(C)(C)C)c(O)c(C(C)(C)C)c3)nn2)cc1Cl | 0.27 nM | 
COc1ccc(-c2ocnc2C(=O)NCCCNC(=O)CCc2cc(C(C)(C)C)c(O)c(C(C)(C)C)c2)cc1F | > 1 nM | 
COc1ccc(-c2ocnc2C(=O)NCCCCNC(=O)CCc2cc(C(C)(C)C)c(O)c(C(C)(C)C)c2)cc1F | 0.78 nM | Active
COc1ccc(-c2ocnc2C(=O)NCCCn2cc(CNC(=O)c3cc(C(C)(C)C)c(O)c(C(C)(C)C)c3)nn2)cc1I | 0.31 nM | 
COc1ccc(-c2ocnc2C(=O)NCCCn2cc(CNC(=O)/C=C/c3cc(C(C)(C)C)c(O)c(C(C)(C)C)c3)nn2)cc1I | 0.33 nM | 
COc1c(F)cc(-c2ocnc2C(=O)NCCCc2ccc(NC(=O)/C=C/c3cc(C(C)(C)C)c(O)c(C(C)(C)C)c3)cc2)cc1F | 0.95 nM | Active
COc1c(F)cc(-c2ocnc2C(=O)NCCCNC(=O)c2cc(C(C)(C)C)c(O)c(C(C)(C)C)c2)cc1F | 0.96 nM | 
COC(=O)[C@@]12OC[C@]34[C@H]([C@@H](O)[C@@H]1O)[C@@]1(C)CC(=O)C(O)=C(C)[C@@H]1C[C@H]3OC(=O)[C@H](OC(=O)C=C(C)C)[C@@H]24 |  | inactive
COc1ccc(-c2ocnc2C(=O)NCCCCNC(=O)c2cc(C(C)(C)C)c(O)c(C(C)(C)C)c2)cc1F | 0.62 nM | Active
COc1ccc(-c2ocnc2C(=O)NCCCn2cc(CNC(=O)CCc3cc(C(C)(C)C)c(O)c(C(C)(C)C)c3)nn2)cc1I | 0.81 nM | 
COc1ccc(-c2ocnc2C(=O)NCCCNC(=O)/C=C/c2cc(C(C)(C)C)c(O)c(C(C)(C)C)c2)cc1I | > 1 nM | 
COc1ccc(-c2ocnc2C(=O)NCCCNC(=O)c2cc(C(C)(C)C)c(O)c(C(C)(C)C)c2)cc1I | 0.48 nM | 
